Measurements reported in patent publication US20140051679A1, “KINASE INHIBITORS AND METHOD OF TREATING CANCER WITH SAME” (UNIVERISTY HEALTH NETWORKS, priority 2011, published 2014).

Key:
[1] = system: MDA-MB-468 breast cancer cells; assay: Cell growth inhibition, Sulforhodamine B assay, MDA-MB-468; type: cell-based; details: Homo sapiens, 120 h, 5 days culture, SRB assay, read-out: Cell Line GI50 Range MDA-MB-468
[2] = system: OVCAR-3 ovarian cancer cells; assay: Cell growth inhibition, Sulforhodamine B assay, OVCAR-3; type: cell-based; details: Homo sapiens, 120 h, 5 days culture, SRB assay, read-out: Cell Line GI50 Range OVCAR-3
Aurora B = biological target: T1, Aurora B (Homo sapiens, UniProt Q96GD4); assay: Aurora B inhibition assay (Z-Lyte); type: biochemical; details: 28 nM Aurora B, 128 μM ATP; read-out: IC50 Ranges Aurora B
T1 construct: purchased Invitrogen PV3970
Description: Aurora B inhibition was determined using the Z-Lyte assay kit from Invitrogen. The assay was performed using the recommended manufacturer's instructions with 128 μM ATP and 28 nM Aurora B (Invitrogen cat #PV3970). The % inhibition values were determined according to the manufacturer's directions and IC50 values were obtained using a non-linear 4 point logistic curve fit (XLfit4, IDBS)

[3] = system: Colon tumor initiating cells (TICs), 12 colon; assay: Colon tumor-initiating cell growth inhibition (Alamar Blue); type: cell-based; details: 216 h, 9 days, read-out: GI50 range 12 colon
[4] = system: HCT116 colon cancer cells; assay: Cell growth inhibition, Sulforhodamine B assay, HCT116; type: cell-based; details: Homo sapiens, HCT-116, 120 h, 5 days culture, SRB assay, read-out: Cell Line GI50 Range HCT116
human TTK = biological target: T2, human TTK (Homo sapiens, UniProt P33981); assay: TTK inhibition assay (indirect ELISA); type: biochemical; details: GST-TTK 0.68 nM, 16 μM ATP; read-out: IC50 Ranges TTK
T2 construct: amino terminal GST fusion of full length human TTK; purchased Invitrogen
T2 sequence (P33981 1-857): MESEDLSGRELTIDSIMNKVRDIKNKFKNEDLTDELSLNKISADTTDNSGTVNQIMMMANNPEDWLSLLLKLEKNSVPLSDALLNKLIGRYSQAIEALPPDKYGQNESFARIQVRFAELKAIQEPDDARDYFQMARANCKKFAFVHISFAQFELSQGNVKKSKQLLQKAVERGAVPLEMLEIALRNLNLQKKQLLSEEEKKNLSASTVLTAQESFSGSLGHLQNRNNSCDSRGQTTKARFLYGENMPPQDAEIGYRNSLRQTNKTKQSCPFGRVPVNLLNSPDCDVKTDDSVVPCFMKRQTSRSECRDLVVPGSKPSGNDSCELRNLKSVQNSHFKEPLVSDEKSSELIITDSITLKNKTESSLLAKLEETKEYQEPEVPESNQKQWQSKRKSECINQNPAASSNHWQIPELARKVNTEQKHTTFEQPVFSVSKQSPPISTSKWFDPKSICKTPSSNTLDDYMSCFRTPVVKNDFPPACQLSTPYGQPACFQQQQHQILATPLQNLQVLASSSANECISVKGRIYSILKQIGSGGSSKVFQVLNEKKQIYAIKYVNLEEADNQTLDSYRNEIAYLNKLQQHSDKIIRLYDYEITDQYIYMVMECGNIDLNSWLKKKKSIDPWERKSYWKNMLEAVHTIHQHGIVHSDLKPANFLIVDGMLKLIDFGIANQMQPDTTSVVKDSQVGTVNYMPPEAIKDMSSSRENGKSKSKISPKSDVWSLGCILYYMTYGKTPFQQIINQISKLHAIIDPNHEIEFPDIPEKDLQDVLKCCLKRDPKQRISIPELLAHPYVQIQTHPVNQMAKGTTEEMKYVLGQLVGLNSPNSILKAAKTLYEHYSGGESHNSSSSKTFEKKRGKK

human PLK4 = biological target: T3, human PLK4 (Homo sapiens, UniProt O00444); assay: PLK4 inhibition assay (indirect ELISA); type: biochemical; details: GST-PLK4 4 nM, 15 μM ATP; read-out: IC50 Ranges PLK4
T3 construct: amino terminal GST fusion of residues 1-391 of human PLK4; made in house; host or cells: E. coli
T3 sequence (O00444 1-391): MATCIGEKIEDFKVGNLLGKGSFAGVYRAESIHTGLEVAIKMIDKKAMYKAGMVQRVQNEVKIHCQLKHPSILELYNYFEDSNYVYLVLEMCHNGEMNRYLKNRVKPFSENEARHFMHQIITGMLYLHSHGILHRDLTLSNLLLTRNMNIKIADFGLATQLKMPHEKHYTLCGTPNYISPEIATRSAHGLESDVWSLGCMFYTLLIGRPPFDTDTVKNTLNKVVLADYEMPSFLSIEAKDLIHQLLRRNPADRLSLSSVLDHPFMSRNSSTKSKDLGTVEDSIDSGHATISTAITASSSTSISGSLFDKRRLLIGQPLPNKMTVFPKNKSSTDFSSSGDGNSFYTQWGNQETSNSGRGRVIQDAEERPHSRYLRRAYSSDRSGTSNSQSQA
How it was run: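 Dephosphorylated GST-tagged human PLK4 (residues 1-391, E. coli), 4 nM, preincubated 15 min with compound, then reacted 30 min with 15 μM ATP on MBP-coated plates (50 mM HEPES pH 7.5, 10 mM MgCl2, 0.01% Brij 35). Phospho-MBP detected by antibody ELISA at 450 nm. Tested at 10 μM or 10-point titrations; IC50 from 4-parameter logistic fit.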

[5] = system: PA-1 ovarian cancer cells; assay: Cell growth inhibition, Sulforhodamine B assay, PA-1; type: cell-based; details: 120 h, 5 days culture, SRB assay, read-out: Cell Line GI50 Range PA-1
[6] = system: Ovarian TICs, 2393A ovarian; assay: Ovarian tumor-initiating cell growth inhibition (Alamar Blue); type: cell-based; details: 144 h, 6 days, read-out: GI50 range 2393A ovarian
HT29 colon cancer cells = assay: Cell growth inhibition, Sulforhodamine B assay, HT29; type: cell-based; details: Homo sapiens, HT-29, 120 h, 5 days culture, SRB assay, read-out: Cell Line GI50 Range HT29
[7] = system: MDA-MB-231 breast cancer cells; assay: Cell growth inhibition, Sulforhodamine B assay, MDA-MB-231; type: cell-based; details: Homo sapiens, 120 h, 5 days culture, SRB assay, read-out: Cell Line GI50 Range MDA-MB-231

T1 sequence (Q96GD4 whole entry): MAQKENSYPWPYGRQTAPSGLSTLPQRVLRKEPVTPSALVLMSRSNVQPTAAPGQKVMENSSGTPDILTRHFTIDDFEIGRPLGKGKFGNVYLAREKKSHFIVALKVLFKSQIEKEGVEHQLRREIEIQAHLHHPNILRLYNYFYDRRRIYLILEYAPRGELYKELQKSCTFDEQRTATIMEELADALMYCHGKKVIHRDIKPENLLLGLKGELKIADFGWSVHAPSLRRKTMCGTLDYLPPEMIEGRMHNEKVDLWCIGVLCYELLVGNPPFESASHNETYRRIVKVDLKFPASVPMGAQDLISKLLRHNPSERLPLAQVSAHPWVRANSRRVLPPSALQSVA

Compound | GI50 [1] [µM] | GI50 [2] [µM] | IC50 (Aurora B) [µM] | GI50 [3] [µM] | GI50 [4] [µM] | IC50 (human TTK) [µM] | IC50 (human PLK4) [µM] | GI50 [5] [µM] | GI50 [6] [µM] | GI50 (HT29 colon cancer cells) [µM] | GI50 [7] [µM]
CC(C)C(NC(=O)c1ccc2[nH]nc(-c3ccc(OC4CCN(C)CC4)cc3)c2c1)c1ccccc1Cl (stereo not shown) [Example A144, N-(1-(2-chlorophenyl)-2-methylpropyl)-3-(4-((1-methylpiperidin-4-yl)oxy)phenyl)-1H-indazole-5-carboxamide] | ≤ 5 | ≤ 5 | ≤ 5 | ≤ 5 | ≤ 5 | ≤ 5 | ≤ 5 | ≤ 5 | ≤ 5 | ≤ 5 | ≤ 5
CN1CCC(Oc2ccc(-c3n[nH]c4ccc(NC(=O)C(c5cccs5)N5CCCC5)cc34)cc2)CC1 (stereo not shown) [Example A91, N-(3-(4-((1-methylpiperidin-4-yl)oxy)phenyl)-1H-indazol-5-yl)-2-(pyrrolidin-1-yl)-2-(thiophen-2-yl)acetamide] | ≤ 5 | ≤ 5 | ≤ 5 | ≤ 5 | ≤ 5 | ≤ 5 | ≤ 5 | ≤ 5 | ≤ 5 | ≤ 5 | ≤ 5
CN1CCC(Oc2ccc(-c3n[nH]c4ccc(C(=O)NC(c5ccccc5F)C5CC5)cc34)cc2)CC1 (stereo not shown) [Example A136, N-(cyclopropyl(2-fluorophenyl)methyl)-3-(4-((1-methylpiperidin-4-yl)oxy)phenyl)-1H-indazole-5-carboxamide] | ≤ 5 | ≤ 5 | ≤ 5 | ≤ 5 | ≤ 5 | ≤ 5 | ≤ 5 | ≤ 5 | ≤ 5 | ≤ 5 | ≤ 5
CN1[C@@H]2CC[C@H]1C[C@@H](Oc1ccc(-c3n[nH]c4ccc(C(=O)NC(c5ccccc5)C5CC5)cc34)cc1)C2 (stereo partly drawn) [Example A178, N-(cyclopropyl(phenyl)methyl)-3-(4-(((1R,3r,5S)-8-methyl-8-azabicyclo[3.2.1]octan-3-yl)oxy)phenyl)-1H-indazole-5-carboxamide] | ≤ 5 | ≤ 5 | ≤ 5 | ≤ 5 | ≤ 5 | ≤ 5 | ≤ 5 | ≤ 5 | ≤ 5 | ≤ 5 | ≤ 5
CN1CCC(Oc2ccc(-c3n[nH]c4ccc(C(=O)N[C@H](CCO)c5ccccc5)cc34)cc2)CC1 [Example A137, (R)—N-(3-hydroxy-1-phenylpropyl)-3-(4-((1-methylpiperidin-4-yl)oxy)phenyl)-1H-indazole-5-carboxamide] | ≤ 5 | ≤ 5 | ≤ 5 | ≤ 5 | ≤ 5 | ≤ 5 | ≤ 5 | ≤ 5 | ≤ 5 | ≤ 5 | ≤ 5
COc1ccccc1C(NC(=O)c1ccc2[nH]nc(-c3ccc(OC4CCN(C)CC4)cc3)c2c1)C1CC1 (stereo not shown) [Example A151, N-(cyclopropyl(2-methoxyphenyl)methyl)-3-(4-((1-methylpiperidin-4-yl)oxy)phenyl)-1H-indazole-5-carboxamide] | ≤ 5 | ≤ 5 | ≤ 5 | ≤ 5 | ≤ 5 | ≤ 5 | ≤ 5 | ≤ 5 | ≤ 5 | ≤ 5 | ≤ 5
C[C@@H](NC(=O)c1ccc2[nH]nc(-c3ccc(OC4CCN(C)CC4)cc3)c2c1)c1ccccc1F [Example A134, (R)—N-(1-(2-fluorophenyl)ethyl)-3-(4-((1-methylpiperidin-4-yl)oxy)phenyl)-1H-indazole-5-carboxamide] | ≤ 5 | 5 to 20 | ≤ 5 | ≤ 5 | ≤ 5 | ≤ 5 | ≤ 5 | ≤ 5 | ≤ 5 | ≤ 5 | ≤ 5

Results, then the molecule that gave them:

GI50 [1] [µM] | GI50 [2] [µM] | IC50 (Aurora B) [µM] | GI50 [3] [µM] | GI50 [4] [µM] | IC50 (human TTK) [µM] | IC50 (human PLK4) [µM] | GI50 [5] [µM] | GI50 [6] [µM] | GI50 (HT29 colon cancer cells) [µM] | GI50 [7] [µM] | Compound
≤ 5 | ≤ 5 | ≤ 5 | ≤ 5 | ≤ 5 | ≤ 5 | ≤ 5 | ≤ 5 | ≤ 5 | ≤ 5 | ≤ 5 | O=C(NC(c1ccccc1)C1CC1)c1ccc2[nH]nc(-c3ccc(OC4CCN(C5COC5)CC4)cc3)c2c1 (stereo not shown) [Example A157]
≤ 5 | ≤ 5 | ≤ 5 | ≤ 5 | ≤ 5 | ≤ 5 | ≤ 5 | ≤ 5 | ≤ 5 | ≤ 5 | ≤ 5 | O=CN1CCC(Oc2ccc(-c3n[nH]c4ccc(NC(=O)C(c5ccccn5)C5CCCC5)cc34)cc2)CC1 (stereo not shown) [Example A176, 2-cyclopentyl-N-(3-(4-((1-formylpiperidin-4-yl)oxy)phenyl)-1H-indazol-5-yl)-2-(pyridin-2-yl)acetamide]
≤ 5 | ≤ 5 | ≤ 5 | ≤ 5 | ≤ 5 | ≤ 5 | ≤ 5 | ≤ 5 | ≤ 5 | ≤ 5 | ≤ 5 | CN1CCC(Oc2ccc(-c3n[nH]c4ccc(C(=O)N[C@@H](c5sccc5Cl)C5CC5)cc34)cc2)CC1 [Example A166, (R)—N-((3-chlorothiophen-2-yl)(cyclopropyl)methyl)-3-(4-((1-methylpiperidin-4-yl)oxy)phenyl)-1H-indazole-5-carboxamide]
≤ 5 | ≤ 5 | ≤ 5 | ≤ 5 | ≤ 5 | ≤ 5 | ≤ 5 | ≤ 5 | ≤ 5 | ≤ 5 | ≤ 5 | COCCN1CCC(Oc2ccc(-c3n[nH]c4ccc(C(=O)N[C@H](c5cccs5)C5CC5)cc34)cc2)CC1 [Example A163, (S)—N-(cyclopropyl(thiophen-2-yl)methyl)-3-(4-((1-(2-methoxyethyl)piperidin-4-yl)oxy)phenyl)-1H-indazole-5-carboxamide]
